Key:
[1] = Serum 25(OH)D3 (RIA) after 1×/weekly oral administration in vitamin D deficient rats; format: in vivo, rat; conditions: FIG. 9, 1×/weekly oral, 100, 1000 and 3000 mcg/kg body weight
Excerpt: FIG. 9 is a bar graph illustrating the increases in serum 25(OH)D3 occurring after 1×/weekly oral administration of 25(OH)D3 at 100, 1000 and 3000 mcg/kg body weight in vitamin D deficient rats. The rats were male, Sprague-Dawley rats (weanlings, n=4-6/group) received from a commercial supplier. The animals were placed in rooms that lacked light emissions in the UV range. The animals were fed diets lacking any vitamin D, whereby at 10 weeks of age the animals were randomly assigned to 3 groups and then orally dosed 1× every 7 days with vehicle (5% ethanol in Neobee oil) or 25(OH)D3 dissolved in ethanol and Neobee oil. Blood was collected at the times indicated in the graph and serum 25(OH)D3 concentrations were assessed using a commercially available RIA kit (DiaSorin of Stillwater, Minn.).

[2] = Serum total calcium after 1×/weekly oral administration in vitamin D deficient rats; format: in vivo, rat; conditions: FIG. 10
Excerpt: The rats were male, Sprague-Dawley rats (weanlings, n=4-6/group) received from a commercial supplier. The animals were placed in rooms that lacked light emissions in the UV range. The animals were fed diets lacking any vitamin D. At 10 weeks of age the animals were randomly assigned to 3 groups, and then orally dosed 1× every 7 days with vehicle (5% ethanol in Neobee oil) or 25(OH)D3 dissolved in ethanol and Neobee oil. Blood was collected at the times indicated in the graph and total calcium concentrations were assessed in the serum using atomic absorption spectrometry or a clinical analyzer (Pentra 400, Horiba ABX Diagnostics—France).

[3] = Serum total calcium after 1×/month oral administration in vitamin D-deficient rats; format: in vivo, rat
Excerpt: FIG. 4 is a bar graph showing no increase in serum Ca concentration levels above the normal range occurring after exemplary 1×/month oral administration of 25-(OH)D3 in vitamin D-deficient rats. The rats were male, Sprague-Dawley rats (weanlings, n=30) received from a commercial supplier. The animals were placed in rooms that lacked light emissions in the UV range and fed diets lacking vitamin D. At 10 weeks of age, the rats were randomly assigned to 6 groups (n=5/group), bled (0 d) and then orally dosed 1× every 28 days with vehicle (5% ethanol in Neobee oil) or 25-(OH)D3 dissolved in ethanol and Neobee oil, whereby blood was again collected 4 hr, 24 hr, and 1, 2, 3 and 4 weeks after each single, oral dose was administered. Total calcium concentrations were assessed in the serum using absorption spectrometry. FIG. 4 includes data out to 10 months of dosing.
The rats were male, Sprague-Dawley rats (weanlings, n=4-6/group) received from a commercial supplier. […] Blood was collected at the times indicated in the graph and total calcium concentrations were assessed in the serum using atomic absorption spectrometry or a clinical analyzer (Pentra 400, Horiba ABX Diagnostics—France).

[4] = cited from earlier work
[5] = rat, in vivo; cited from earlier work
Solubility of 25-(OH)D3 = format: physicochemical
Excerpt: 25-(OH)D3 can exist in its free form or as a monohydrate. 25-(OH)D3 monohydrate is crystalline.

[6] = Serum total calcium after 1×/month oral administration in rats with normal vitamin D status; format: in vivo, rat
Excerpt: FIG. 2 is a bar graph showing no change in serum calcium occurring after […] oral administration of 25-(OH)D3 in rats with normal vitamin D status. The rats were male, Sprague-Dawley rats (9 weeks of age, n=15) received from a commercial supplier. The animals were placed on a purified diet containing 0.47% calcium and allowed to acclimate for one week. After one week the animals were randomly assigned to 3 groups, bled (0 d), and then orally dosed 1× every […] with vehicle (5% ethanol in Neobee oil) or 25-(OH)D3 dissolved in ethanol and Neobee oil. Blood was again collected 4 hr, 24 h, and 1, 2, 3 and 4 weeks after each single, oral dose was administered, and total calcium concentrations were assessed in the serum using atomic absorption spectrometry. FIG. 2 also contains data taken after the 6th and 10th monthly dose.
The rats were male, Sprague-Dawley rats (9 weeks of age, n=4-6 animals/group) received from a commercial supplier. The animals were placed on a purified diet containing 0.47% calcium and allowed to acclimate for one week. […] Total calcium concentrations were assessed in the serum using atomic absorption spectrometry or a clinical analyzer (Pentra 400, Horiba ABX Diagnostics—France).

[7] = Serum 25-(OH)D3 (RIA) after 1×/month oral administration in vitamin D deficient rats; format: in vivo, rat
Excerpt: FIG. 3 is a bar graph showing exemplary elevations of serum 25-(OH)D3 levels occurring after 1×/month oral administration of 25-(OH)D3 at 1, 3, 9, 30 and 100 mcg/kgBW in vitamin D deficient rats. The rats were male, Sprague-Dawley rats (weanlings, n=30) received from a commercial supplier. The animals were placed in rooms that lacked light emissions in the UV range and were fed diets lacking any vitamin D, whereby at 10 weeks of age the animals were randomly assigned to 6 groups (n=5/group), bled (0 d), and then orally dosed 1× every 28 days with vehicle (5% ethanol in Neobee oil) or 25-(OH)D3 dissolved in ethanol and Neobee oil. Blood was again collected 4 hr, 24 hr, and 1, 2, 3 and 4 weeks after each single, oral dose was administered, and serum 25-(OH)D3 concentrations were assessed using a commercially available RIA kit (DiaSorin of Stillwater, Minn.). FIG. 3 includes data taken after the 6th and 10th monthly dose.
FIG. 7 is a bar graph illustrating the increases in serum 25(OH)D3 occurring after 1×/monthly oral administration of 25(OH)D3 at 1000 and 3000 mcg/kg body weight in vitamin D deficient rats. […] Blood was collected at the times indicated in the graph and serum 25(OH)D3 concentrations were assessed using a commercially available RIA kit (DiaSorin of Stillwater, Minn.).

[8] = Serum 25-(OH)D3 (RIA) after 1×/month oral administration in rats with normal vitamin D status; format: in vivo, rat
Excerpt: FIG. 1 is a bar graph showing exemplary elevations of serum 25-(OH)D3 levels occurring after 1×/month oral administration of 25-(OH)D3 at 9 and 100 mcg/kgBW in rats with normal vitamin D status. The rats were male, Sprague-Dawley rats (9 weeks of age, n=15) received from a commercial supplier, and the animals were placed on a purified diet containing 0.47% calcium and allowed to acclimate for one week. After one week the animals were randomly assigned to 3 groups, bled (0 d), and then orally dosed 1× every 28 days with vehicle (5% ethanol in Neobee oil) or 25-(OH)D3 dissolved in ethanol and Neobee oil. Blood was again collected 4 hr, 24 hr, and 1, 2, 3 and 4 weeks after each single, oral dose was administered, and, serum 25-(OH)D3 concentrations were assessed using a commercially available RIA kit (DiaSorin of Stillwater, Minn.). FIG. 1 also contains data taken after 6 months of dosing.
FIG. 5 is a bar graph illustrating the increases in serum 25(OH)D3 occurring after 1×/monthly oral administration of 25(OH)D3 at 1000 and 3000 mcg/kg body weight in rats with normal vitamin D status. The rats were male, Sprague-Dawley rats (9 weeks of age, n=4-6 animals/group) received from a commercial supplier. […] Blood was collected at the times indicated in the graph, and serum 25(OH)D3 concentrations were assessed using a commercially available RIA kit (DiaSorin of Stillwater, Minn.).

C=C1CC[C@H](O)C/C1=C/C=C1\CCCC2(C)[C@@H]([C@H](C)CCCC(C)(C)O)CC[C@@H]12 (stereo partly drawn) [25-(OH)D3, 25-hydroxy-vitamin D3]
blood levels of 25(OH)D3 [1]: above the normal range without the large fluctuations | serum calcium [2]: no increase in serum calcium outside the normal range | serum Ca concentration (hypercalcemia) ([3]; FIG. 4, 1×/month oral, vitamin D-deficient rats, up to 10 months): do not cause hypercalcemia | serum calcium ([3]; FIG. 8, 1×/monthly oral, 1000 and 3000 mcg/kg body weight, vitamin D deficient rats): no increase in serum calcium outside the normal range | time to peak 25-(OH)D3 concentrations in the serum ([4]; administered orally): about 4 hours | lifetime in the body ([4]; human, in vivo): 25 to 32 days | fraction absorbed ([4]; orally administered, in man): 62-77% | half-life ([4]; orally administered): 12 to 23 days | 25-(OH)D3 levels with risk of causing a mild vitamin D intoxication [5]: above 500 ng/ml | blood level concentration at which toxicity becomes a concern [5]: greater than 450 ng/ml | solubility (Solubility of 25-(OH)D3; organic solvents): soluble | solubility (Solubility of 25-(OH)D3; water): relatively insoluble | serum calcium (hypercalcemia) ([6]; FIG. 2, 1×/month oral, up to 10 months): do not cause hypercalcemia | serum calcium ([6]; FIG. 6, 1×/monthly oral, 1000 and 3000 mcg/kg body weight): no increase in serum calcium outside the normal range | serum 25-(OH)D3 levels ([7]; FIG. 3, 1×/month oral, 1, 3, 9, 30 and 100 mcg/kgBW, vitamin D deficient rats, up to 10th monthly dose): values return to baseline 4 weeks after the dose is administered | serum 25(OH)D3 circulating levels ([7]; FIG. 7, 1×/monthly oral, 1000 and 3000 mcg/kg body weight, D-deficient rats): circulating levels higher than normal | serum 25-(OH)D3 levels ([8]; FIG. 1, 1×/month oral, 9 and 100 mcg/kgBW, rats with normal vitamin D status, up to 6 months of dosing): values return to baseline 4 weeks after the dose is administered | serum 25(OH)D3 circulating levels ([8]; FIG. 5, 1×/monthly oral, 1000 and 3000 mcg/kg body weight, D-sufficient rats): circulating levels higher than normal
